Patent US20240316047A1, “INHIBITORS OF RNA HELICASE DHX9 AND USES THEREOF” (ACCENT THERAPEUTICS, INC., priority 2022, published 2024)

Target: Human recombinant DHX9 protein (Homo sapiens (Human), UniProt Q08211)
Assay: DHX9 ATPase assay (ADP-Glo)
Type: biochemical
Settings: for IC50: read-out: DHX9 Biochemical Inflection Point

Sequence of Human recombinant DHX9 protein (Q08211 whole entry): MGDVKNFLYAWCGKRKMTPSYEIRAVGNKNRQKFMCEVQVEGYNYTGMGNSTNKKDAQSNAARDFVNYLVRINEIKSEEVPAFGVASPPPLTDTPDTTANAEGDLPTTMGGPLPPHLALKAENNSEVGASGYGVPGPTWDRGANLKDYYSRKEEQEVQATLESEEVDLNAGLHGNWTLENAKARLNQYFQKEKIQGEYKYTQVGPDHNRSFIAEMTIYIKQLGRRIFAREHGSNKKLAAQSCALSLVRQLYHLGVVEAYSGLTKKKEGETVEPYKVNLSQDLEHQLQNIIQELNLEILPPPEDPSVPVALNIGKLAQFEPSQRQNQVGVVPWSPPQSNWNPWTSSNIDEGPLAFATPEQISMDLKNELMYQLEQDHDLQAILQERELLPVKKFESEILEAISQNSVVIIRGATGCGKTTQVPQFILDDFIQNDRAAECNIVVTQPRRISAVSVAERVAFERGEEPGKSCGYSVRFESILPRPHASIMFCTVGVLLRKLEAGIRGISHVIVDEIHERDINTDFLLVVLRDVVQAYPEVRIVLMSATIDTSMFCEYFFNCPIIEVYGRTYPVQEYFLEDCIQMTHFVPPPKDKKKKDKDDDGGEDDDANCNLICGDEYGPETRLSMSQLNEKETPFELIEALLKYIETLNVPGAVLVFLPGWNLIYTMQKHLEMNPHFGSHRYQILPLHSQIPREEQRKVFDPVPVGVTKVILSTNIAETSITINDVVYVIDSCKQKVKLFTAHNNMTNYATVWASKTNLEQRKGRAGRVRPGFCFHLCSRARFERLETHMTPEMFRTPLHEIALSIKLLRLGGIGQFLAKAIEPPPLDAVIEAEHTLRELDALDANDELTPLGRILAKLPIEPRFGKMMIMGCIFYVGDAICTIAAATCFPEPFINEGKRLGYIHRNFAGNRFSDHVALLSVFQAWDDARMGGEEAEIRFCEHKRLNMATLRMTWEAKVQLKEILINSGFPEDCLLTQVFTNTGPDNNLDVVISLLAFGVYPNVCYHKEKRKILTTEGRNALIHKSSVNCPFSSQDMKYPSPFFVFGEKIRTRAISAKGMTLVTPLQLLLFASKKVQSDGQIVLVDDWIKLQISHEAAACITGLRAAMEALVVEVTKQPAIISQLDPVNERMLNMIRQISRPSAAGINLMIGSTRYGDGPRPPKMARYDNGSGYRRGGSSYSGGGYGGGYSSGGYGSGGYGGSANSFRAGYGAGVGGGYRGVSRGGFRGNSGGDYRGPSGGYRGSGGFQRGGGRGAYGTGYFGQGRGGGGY

DHX9 Biochemical Max Inhibition	IC50 [nM]	Structure (SMILES)
75.5%	13.4	CCS(=O)(=O)Nc1cc(Cl)cc(NC(=O)c2cc(-c3ncc(F)cc3OC)c(C)s2)c1 [Example 354]
57.3%	173	CS(=O)(=O)Nc1cc(Cl)cc(NC(=O)c2cnn(C3CC4(COC4)C3)c2)c1 [Example 128]
64.9%	14.4	CN(C)C(=O)N1CCN(c2ccc(-n3cc(C(=O)Nc4cc(Cl)cc(NS(C)(=O)=O)c4)cn3)nc2)CC1 [Example 89]
57.7%	84.6	CN(C)S(=O)(=O)c1ccc(-n2cc(C(=O)Nc3cc(Cl)cc(NS(C)(=O)=O)c3)cn2)nc1 [Example 200]
70.2	12.5	CN1CC(Oc2cnc(-c3cc(C(=O)Nc4cc(Cl)cc(NS(C)(=O)=O)c4)cn3CC(F)F)nc2)C1 [Example 679]
73.7	24.8	CS(=O)(=O)Nc1cc(Cl)cc(NC(=O)c2cnn(-c3ncc(N4CCOCC4)cn3)c2)c1 [Example 394]
61.7%	33.2	CS(=O)(=O)Nc1cc(Br)cc(NC(=O)c2cc(-c3ccccc3O)cs2)c1 [Example 21]
59	51	CS(=O)(=O)Nc1cc(Cl)cc(NC(=O)c2c[nH]c(-c3ncc(F)cc3F)c2)c1 [Example 560]
70.9	16.7	CCc1sc(C(=O)Nc2cc(Cl)cc(NS(C)(=O)=O)c2)cc1-c1ncccc1F [Example 587]
82.8	15.5	COc1ccc(-c2cc(C(=O)Nc3cc(Cl)cc(NS(C)(=O)=O)c3)cn2C)nc1 [Example 573]
69.5%	37.7	CS(=O)(=O)Nc1cc(Cl)cc(NC(=O)c2cc3c(=O)[nH]ccn3c2)c1 [Example 301]
76.5%	6.3	CS(=O)(=O)Nc1cc(Cl)cc(NC(=O)c2cnn(-c3cc(N4CCNCC4)ccn3)c2)c1 [Example 147]
54.2%	7.1	CN1CCN(c2ccc(-n3cc(C(=O)Nc4cc(Br)cc(NS(C)(=O)=O)c4)cn3)nc2)CC1=O [Example 88]
67.1	28.3	Cc1sc(C(=O)Nc2cc(Cl)cc(NS(C)(=O)=O)c2)cc1-c1ncc(N2CC(F)(F)C2)cc1OCC(F)(F)F [Example 707]
75.5%	39	CS(=O)(=O)Nc1cc(Cl)cc(NC(=O)c2cc(-c3ncccc3Cc3ncccn3)cs2)c1 [Example 384]
48.8%	197	CS(=O)(=O)Nc1cc(Br)cc(NC(=O)c2cnn(-c3cccc(C(F)F)n3)c2)c1 [Example 56]
60.8%	162	CS(=O)(=O)Nc1cc(Cl)cc(NC(=O)c2cnn(C3CCCC3)c2)c1 [Example 309]
67.4%	–	Cc1sc(C(=O)Nc2cc(Cl)cc(NS(C)(=O)=O)c2)cc1-c1ncc(OC(C)(C)C)cc1F [Example 381]
71.8	14.7	Cc1cc(C(=O)Nc2cc(Cl)cc(NS(C)(=O)=O)c2)cn1-c1ncc([S+](C)[O-])cn1 (centres unmarked) [Example 657]

DHX9 Biochemical Max Inhibition	IC50 [nM]	Structure (SMILES)
70.8	26.4	Cc1sc(C(=O)Nc2cc(Cl)cc(NS(C)(=O)=O)c2)cc1-c1ncc(N2CC(F)(F)C2)cc1F [Example 532, N-(3-chloro-5-methanesulfonamidophenyl)-4-[5-(3,3-difluoroazetidin-1-yl)-3-fluoropyridin-2-yl]-5-methylthiophene-2-carboxamide]
54.3	46.4	COC1CCN(c2cc(F)cnc2-c2cc(C(=O)Nc3cc(Cl)cc(NS(C)(=O)=O)c3)sc2C)C1 (centres unmarked) [Example 505]
46.4%	380	CS(=O)(=O)Nc1cc(Cl)cc(NC(=O)c2cc(-c3ccccc3)co2)c1 [Example 7]
55.9	128	Cc1sc(C(=O)Nc2cc(Cl)cc(NS(C)(=O)=O)c2)nc1-c1ccc(F)cn1 [Example 716]
65.6%	215	Cc1cn2cc(C(=O)Nc3cc(Cl)cc(NS(C)(=O)=O)c3)cc2c(C)n1 [Example 322]
90.9	4	CCS(=O)(=O)Nc1cc(Cl)cc(NC(=O)c2cc(-c3ncc(N4CC(F)C4)cn3)c(C)s2)c1 [Example 509]
99.9	15.4	Cc1cc(C(=O)Nc2cc(Cl)cc(NS(C)(=O)=O)c2)cn1-c1ncc(N2CC(F)(F)C2)cc1C#N [Example 415]
56.5%	40.9	CCS(=O)(=O)Nc1cc(Cl)cc(NC(=O)c2cc(-c3ncc(OC)cc3F)c(C)s2)c1 [Example 360]
64.6%	185	CS(=O)(=O)Nc1cc(Cl)cc(NC(=O)c2cnn(C3CC4CCC(C3)O4)c2)c1 (centres unmarked) [Example 250]
68.7	5.3	Cn1cc(C(=O)Nc2cc(Cl)cc(NS(C)(=O)=O)c2)cc1-c1ncc(N2CCN(C(=O)C3CC3)CC2)cc1F [Example 714]
69.7	45.3	Cc1sc(C(=O)Nc2cc(Cl)cc(NS(C)(=O)=O)c2)cc1-c1ncc(N2CC(F)(F)C2)cc1OC(F)F [Example 536]
63.7	39.7	Cc1sc(C(=O)Nc2cc(Cl)cc(NS(C)(=O)=O)c2)cc1-c1ncc(F)cc1N1CCS(=O)(=O)CC1 [Example 503]
74.2	56.2	CS(=O)(=O)Nc1cc(Cl)cc(NC(=O)c2cc(-c3ncc(F)cn3)n(C3CC3)c2)c1 [Example 712]
68.5	35.9	CS(=O)(=O)Nc1cc(Cl)cc(NC(=O)c2cnn(-c3ncc(N4CC5(COC5)C4)cc3O)c2)c1 [Example 691]
84.2	15.5	CCOc1ccc(-n2cc(C(=O)Nc3cc(Cl)cc(NS(C)(=O)=O)c3)cc2C)nc1 [Example 437]
71.3	5.7	Cc1sc(C(=O)Nc2cc(Cl)cc(NS(C)(=O)=O)c2)cc1-c1ncc(OC(C)(C)CO)cn1 [Example 678]
63.9%	591	CS(=O)(=O)Nc1cc(Cl)cc(NC(=O)c2cc3c(F)ccc(F)c3s2)c1 [Example 325]
70.1	149	Cc1cc(C(=O)Nc2cc(Cl)cc(NS(C)(=O)=O)c2)cn1-c1ncc(Cl)cn1 [Example 578]
65.1	97.8	Cc1cc(C(=O)Nc2cc(Cl)cc(NS(C)(=O)=O)c2)cn1-c1ncc(N2CC(F)(F)C2)cc1OC(C)C [Example 672]

DHX9 Biochemical Max Inhibition	IC50 [nM]	Structure (SMILES)
77.8	70.1	CS(=O)(=O)Nc1cc(Cl)cc(NC(=O)c2cc(-c3ncccc3F)n(CC(F)(F)F)c2)c1 [Example 564]
74.2	41.6	Cc1cc(C(=O)Nc2cc(Cl)cc(NS(C)(=O)=O)c2)cn1-c1ccc(N2CC3CC3C2)cn1 (centres unmarked) [Example 411]
73.3	70.9	Cc1sc(C(=O)Nc2cc(F)cc(NS(C)(=O)=O)c2)cc1-c1ncc(N2CC(C(F)(F)F)C2)cc1F [Example 501]
70.25	17	Cc1cc(C(=O)Nc2cc(Cl)cc(NS(C)(=O)=O)c2)cn1-c1ncc(N2CC(F)(F)C2)cn1 [Example 418]
69.7	–	CCc1sc(C(=O)Nc2cc(Cl)cc(NS(C)(=O)=O)c2)cc1-c1ccc(F)cn1 [Example 589]
67.5	17.4	Cn1cc(C(=O)Nc2cc(Cl)cc(NS(C)(=O)=O)c2)cc1-c1ncc(F)cc1F [Example 540, N-(3-chloro-5-methanesulfonamidophenyl)-5-(3,5-difluoropyridin-2-yl)-1-methyl-1H-pyrrole-3-carboxamide]
61.8	85.4	Cn1cc(C(=O)Nc2cc(Cl)cc(NS(C)(=O)=O)c2)cc1-c1ccc(N2CCC3(C2)CC3(F)F)cn1 (centres unmarked) [Example 495]
78%	29.2	Cc1cc(C(=O)Nc2cc(Cl)cc(NS(C)(=O)=O)c2)cn1-c1ccc(N2CCN(C(=O)C(C)C)CC2)cn1 [Example 283]
71.2	95	CS(=O)(=O)Nc1cc(Cl)cc(NC(=O)c2cc(C(=O)N3CCCCC3)n(-c3ccccn3)c2)c1 [Example 644]
70.6%	7.2	Cc1sc(C(=O)Nc2cc(Cl)cc(NS(C)(=O)=O)c2)cc1-c1ncccc1O [Example 227]
61.5%	57.6	CS(=O)(=O)Nc1cc(Cl)cc(NC(=O)c2cc(-c3ncc(C(F)(F)F)cn3)cs2)c1 [Example 369]
70.3	12.2	Cc1sc(C(=O)Nc2cc(Cl)cc(NS(C)(=O)=O)c2)cc1-c1ncc(OC2CNC2)cn1 [Example 636, 4-[5-(azetidin-3-yloxy)pyrimidin-2-yl]-N-(3-chloro-5-methanesulfonamidophenyl)-5-methylthiophene-2-carboxamide]
81.5	2.7	Cc1sc(C(=O)Nc2cc(Cl)cc(NS(C)(=O)=O)c2)cc1-c1cn(C2CCOCC2)nn1 [Example 692]
78	45.8	Cn1cc(C(=O)Nc2cc(F)cc(NS(C)(=O)=O)c2)cc1-c1ncc(F)cc1F [Example 558]
96.1	19.6	Cc1sc(C(=O)Nc2cc(Cl)cc(NS(C)(=O)=O)c2)cc1-c1ncc(OCC(F)(F)F)cn1 [Example 706]
73.9	52.6	Cn1cc(C(=O)Nc2cc(Cl)cc(NS(C)(=O)=O)c2)cc1-c1ncc(OC2CN(CC(F)(F)F)C2)cc1F [Example 615]
64.5%	8110	CS(=O)(=O)Nc1cc(Cl)cc(NC(=O)c2cc3cc(C(F)(F)F)ccc3s2)c1 [Example 326]
65.9%	40	CCS(=O)(=O)Nc1cc(F)cc(NC(=O)c2cc(-c3ccccn3)cs2)c1 [Example 113]
